Assay results published in patent US20030104007A1, “Pseudopterosin compounds of Symbiodinium spp isolated from Pseudopterogorgia elisabethae” (priority 2001, published 2003).

What was measured:
[1] = system: PMA-induced mouse ear edema; test: Inhibition of PMA-induced inflammation (edema) of the mouse ear; format: in vivo; conditions: administered topically
Description: A test compound is topically applied in acetone to the inside pinnae of the ears of mice in a solution containing the edema-causing irritant, phorbol 12-myristate 13-acetate (PMA). PMA alone (2 μg/ear) or in combination with the test compound is applied to left ears (5 mice per treatment group) and acetone is applied to all right ears. After 3 hour 20 minute incubation, the mice are euthanized, the ears are removed, and bores are taken and weighed. Edema is measured by subtracting the weight of the right ear (acetone control) from the weight of the left ear (treated). Results are recorded as % decreases (inhibition) or % increase (potentiation) in edema relative to the PMA control group edema. Test compounds are screened at 50 or 25 μg/ear.
This signaling mechanism may be coupled to phagosome formation. The endogenous production of eicosanoids and their role in phagosome formation may be evaluated by using […] as pharmacological probes and analyzing arachidonic acid products by conventional means.

Tetrahymena thermophila = Tetrahymena thermophila phagocytic activity (India ink food vacuole formation); format: cell-based; conditions: read-out: IC50, inhibition of phagocytic activity
Description: In Tetrahymena thermophila, PsA and elisabethadione were potent inhibitors of phagocytic activity with IC50 of 0.4 and 0.1 μM, respectively. A test compound may be assayed as follows. Log-phase Tetrahymena thermophila cultures are grown in 2% proteose peptone, 0.1% glucose at 25° C. A volume comprising 1×10^7 cells are centrifuged at 450 g for 5 minutes. The pellet is washed and resuspended in 3.15 ml of 50 mM TRIS-HCl buffer at pH 7.7. The test compound is prepared at a desired concentration in 0.4 ml volumes. For control samples, 0.4 ml of buffer is used. 0.45 ml of diluted India ink (1:25, v:v) is added to each drug preparation. At t=0, the drug/ink mixture is added to the Tetrahymena cells, and at t=10 min., […] samples of cell suspension are removed and fixed in 10% formaldehyde. At least 100 random cells from each sample are then examined in a light microscope. Phagocytic activity is assessed by calculating the ratio of cells with food vacuoles compared to the cells with no food vacuoles.

[2] = system: prostaglandin E2 production in zymosan-stimulated murine peritoneal macrophages; test: Prostaglandin E2 production in zymosan-stimulated murine peritoneal macrophages; format: cell-based; conditions: read-out: IC50, inhibition of prostaglandin E2 production
[3] = system: leukotriene C4 production in zymosan-stimulated murine peritoneal macrophages; test: Leukotriene C4 production in zymosan-stimulated murine peritoneal macrophages; format: cell-based; conditions: read-out: IC50, inhibition of leukotriene C4 production

IC50 [2]	IC50 [3]	SMILES	ED50, reducing PMA-induced mouse ear edema [1]	IC50 (Tetrahymena thermophila)
		CC(C)=C[C@H]1C[C@H](C)[C@H]2CC[C@H](C)c3c(O)c(O[C@@H]4O[C@@H](C)[C@@H](O)[C@@H](O)[C@@H]4O)c(C)c1c32 [PsE, Pseudopterosin E]	38 μg/ear	
4000 nM	1000 nM	CC(C)=C[C@H]1C[C@H](C)[C@H]2CC[C@H](C)c3c(O[C@@H]4OC[C@@H](O)[C@H](O)[C@H]4O)c(O)c(C)c1c32 [PsA, Pseudopterosin A]	8 μg/ear	400 nM
		CC(C)=CCC[C@H](C)[C@H]1CC[C@H](C)C2=C1C(=O)C(C)=C(O)C2=O [elisabethadione]		100 nM
